According to patent US20110224256A1, “T[…] THE TREATMENT OF PSYCHIATRIC DISORDERS” (priority 2008, published 2011):
“Also recorded” adds a separate entry of the source. Where a name gives a salt, the structure may show the parent alone.

What was measured:
[1] = 0.5 mg/kg i.p., within 5 min, rats; cited from earlier work
[2] = tested on: Sprague-Dawley male rats; assay: Place conditioning to 10 mg/kg cocaine at P60 after juvenile drug exposure; type: in vivo; conditions: juvenile exposure P20-P35: MPH 2 mg/kg, ±7-OHDPAT 0.3 mg/kg, or MPH 2 mg/kg + Naf 0.05 mg/kg; tested at P60; HCl
Protocol: Juvenile Sprague-Dawley male rats were treated with MPH (2 mg/kg, i.p. twice daily), ±7-OHDPAT (0.3 mg/kg, i.p. twice daily), Naf (0.05, 0.5 and 5 mg/kg; i.p. twice daily) or VEH (i.p. twice daily) between the ages of P20 and P35 (Andersen et al., Nat. Neurosci., 5:13-14 (2002)). The MPH dose was selected on the basis of previous studies (see Andersen et al., Nat. Neurosci., 5:13-14 (2002); Bolanos et al., Biol. Psychiatry, 54:1317-1329 (2003); and Mague et al., Biol. Psychiatry, 57:120-125 (2005)), unpublished observations that we find similar behavioral effects if MPH is given i.p. or orally at this dose, and evidence that it approximates a clinically relevant dose in humans based on plasma levels (see Wargin et al., J. Pharmacol. Exp. Ther., 226:382-386 (1983); and Kuczenski, R. & Segal, D. S. J. Neurosci., 22:7264-7271 (2002)). Clinically therapeutic doses of MPH yield plasma levels between 8 and 40 ng/mL (Swanson et al., Behay. Brain Res., 130:73-78 (2002); Teicher et al., Ann. N. Y. Acad. Sci., 1071:313-323 (2006)), with 0.5 mg/kg i.p., achieving plasma levels of 36 ng/mL within 5 min in rats (Berridge et al., Biol. Psychiatry, 60:1111-1120 (2006)). Doses for juvenile exposure to ±7-OHDPAT are based on Neisewander et al., Neuropsychopharmacology, 29:1479-1487 (2004), and cortical microinjections of 10 µg/side were derived from Boulay et al. Prog. Neuropsychopharmacol. Biol. Psychiatry, 24:39-49 (2000). Naf doses below 1 mg/kg have negligible D2 receptor occupancy (Sautel et al., J. Pharmacol. Exp. Ther., 275:1239-1246 (1995)) and are behaviorally effective (Richtand et al., Brain Res., 867:239-242 (2000)). Subjects were weighed daily at 09.00 h and injected with their assigned drug; the second injection was administered 4 h later at 13.00 h. This regimen is designed to match the twice-daily dosing used by children, taking into account the higher metabolic rates of rats (Wargin et al., J. Pharmacol. Exp. Ther., 226:382-386 (1983)). After the second drug administration on P35, the rats received no further treatments until behavioral testing at P60.
Rats treated between P20 and P35 with either Naf (0, 0.05, 0.5 or 5.0 mg/kg; n=7-9), ±7-OHDPAT (0.3 mg/kg; n=9), MPH (2 mg/kg; n=9), or a combination of 2 mg/kg MPH and 0.05 mg/kg Naf (MPH/Naf; n=8) were tested at P60 for place conditioning to 10 mg/kg cocaine. According to standard laboratory methods (Andersen et al., Nat. Neurosci., 5:13-14 (2002); Carlezon, Methods Mol. Med., 84:243-249 (2003)), unbiased place conditioning chambers consisted of two large (24×18×33) side compartments separated by a small (12×18×33 cm) middle compartment. Screening was conducted for 30 min on Day 1. Rats were placed in the middle compartment and allowed to freely explore the apparatus. […] Two days of conditioning (with two sessions per day) occurred on Days 2 and 3 for 60 min (Andersen et al., Nat. Neurosci., 5:13-14 (2002); Carlezon, Methods Mol. Med., 84:243-249 (2003)). During the conditioning sessions, rats received a 1 mL/kg i.p. injection of VEH in the morning (09.00 h) and confined to one side. The rats were then returned to the home cage. Four hours later, rats received 10 mg/kg cocaine and confined to the other side. Sides differed in floor texture, wall colors and lighting, and assignments were counterbalanced. On Day 4, rats were permitted to freely explore the entire apparatus for 30 min in a drug-free state.

[3] = tested on: BDNF; assay: BDNF mRNA and protein in MPH-exposed subjects after cocaine challenge; type: in vivo, rats; conditions: in response to cocaine challenge, preliminary, data not shown
From the text: Changes in D3 expression and function may signal a sensitive period of development, when drug imprinting is likely to occur (Andersen, Trends Pharmacol. Sci., 26:237-243 (2005)). Drug-induced perturbations before the completion of dopamine receptor development may prevent these developmental rearrangements.

COC(=O)C(c1ccccc1)C1CCCCN1 (stereo not drawn) [MPH, d,l-Methylphenidate HCl]
plasma levels [1]: 36 ng/mL
place conditioning to 10 mg/kg cocaine associated environment (pre- vs. post-conditioning) [2]: Place aversion; also recorded: aversion to the cocaine-associated environment
BDNF mRNA [3]: reduced
BDNF protein levels [3]: modestly, but significantly, lower
